This is an account of results in US20220378923A1, “BET DEGRADER” (KYOWA KIRIN CO., LTD., priority 2019, published 2022).

Structures are written as SMILES. Like-named read-outs stand apart in the source and are kept apart here.

In one experiment the test system is DCAF16 KO SU-DHL-4 cells. Nature of the experiment: Inhibitory effect on cell viability using SU-DHL-4 DCAF16 knock out (KO) cell line (Test Example 6). The conditions noted are these: for Activity Attenuation Ratio: (SU-DHL-4 DCAF16 KO IC50)/(SU-DHL-4 WT IC50); for IC50: DCAF16 KO SU-DHL-4 cells, 72 hours, Cell Counting Kit-8, 50% inhibition of cell viability. Type of experiment: cell-based, human. In a few lines:
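SU-DHL-4 DLBCL cells carrying lentiviral Cas9 plus DCAF16-targeting sgRNA (three KO strains; non-targeting control strain), seeded 2000 cells/well, pre-cultured 18–25 h, then given 9-step compound dilutions (0.1% DMSO final) for 72 h at 37° C. Viability read by CCK-8 colorimetric assay.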

A further experiment relates to SU-DHL-4 cells. Nature of the experiment: Inhibitory effect on cell viability in SU-DHL-4 cell line (Test Example 1). As to conditions: 72 hours; for IC50: SU-DHL-4 (wild type) cells, calculated using the measurement results of test example 1, read-out: SU-DHL-4 WT IC50; for IC90: SU-DHL-4 cells, Cell Counting Kit-8, concentration showing 90% inhibition of cell viability, read-out: SU-DHL-4 Cell Viability Inhibition Rate IC90. It counts as cell-based, human. In short, it runs like this:
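SU-DHL-4 cells were grown at 37° C. under 5% CO2 in RPMI1640 with 10 vol % heat-inactivated FBS plus penicillin/streptomycin, seeded and precultured for 18 to 25 hours, then exposed to test compound at 0.1 vol % DMSO for 72 hours. Viability was read with Cell Counting Kit-8 by absorbance at 450 nm.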

For `CCC(=O)N1c2ccccc2[C@H](Nc2ccc(NC(=O)CCCC(=O)Nc3ccc(Cn4c(C(=O)OCCN(C)C)cc5c4CCCC5=O)cc3)cc2)C[C@@H]1C` [Compound 15a, 2-(Dimethylamino)ethyl 1-(4-(5-((4-(((2S,4R)-2-methyl-1-propionyl-1,2,3,4-tetrahydroquinolin-4-yl)amino)phenyl)amino)-5-oxopentanamide)benzyl)-4-oxo-4,5,6,7-tetrahydro-1H-indole-2-carboxylate], in the experiment on DCAF16 KO SU-DHL-4 cells, the “Activity Attenuation Ratio” value worked out at 225 and the IC50 was 63 nM. In the experiment with SU-DHL-4 cells, the IC50 is 0.28 nM and the IC90 amounted to 0.34 nM.

As for `CCC(=O)N1c2ccccc2[C@H](Nc2ccc(-c3cnn(CCNC(=O)c4ccc(Cn5c(C(=O)OCCN(C)C)cc6c5CCCC6=O)cc4)c3)cc2)C[C@@H]1C` [Compound 15d, 2-(Dimethylamino)ethyl 1-(4-((2-(4-(4-(((2S,4R)-2-methyl-1-propionyl-1,2,3,4-tetrahydroquinolin-4-yl)amino)phenyl)-1H-pyrazol-1-yl)ethyl)carbamoyl)benzyl)-4-oxo-4,5,6,7-tetrahydro-1H-indole-2-carboxylate], in the experiment on DCAF16 KO SU-DHL-4 cells, the “Activity Attenuation Ratio” value was 7994. Also, the IC50 in the experiment with DCAF16 KO SU-DHL-4 cells (Homo sapiens) was 858 nM; with SU-DHL-4 cells (Homo sapiens), 0.11 nM.

`CCC(=O)N1c2ccccc2[C@H](Nc2ccc(-n3cc(CNC(=O)c4ccc(Cn5c(CC)cc6c5CCCC6=O)cc4)nn3)cc2)C[C@@H]1C` [Compound 15f, 4-((2-Ethyl-4-oxo-4,5,6,7-tetrahydro-1H-indol-1-yl)methyl)-N-((1-(4-(((2S,4R)-2-methyl-1-propionyl-1,2,3,4-tetrahydroquinolin-4-yl)amino)phenyl)-1H-1,2,3-triazol-4-yl)methyl)benzamide]: the “Activity Attenuation Ratio” value with DCAF16 KO SU-DHL-4 cells is reported as 902. Besides, the IC50 was 28.3 nM in the experiment on DCAF16 KO SU-DHL-4 cells (Homo sapiens) and 0.03 nM in the experiment with SU-DHL-4 cells (Homo sapiens).

For the compound `CCC(=O)N1c2ccccc2[C@H](Nc2ccc(NC(=O)CCCC(=O)Nc3cccc(Oc4ccc(NS(=O)(=O)CC)cc4-c4cn(C)c(=O)cc4OC)c3)cc2)C[C@@H]1C` [Compound 16j, N^1-(3-(4-(Ethylsulfonamide)-2-(4-methoxy-1-methyl-6-oxo-1,6-dihydropyridin-3-yl)phenoxy)phenyl)-N5-(4-(((2S,4R)-2-methyl-1-propionyl-1,2,3,4-tetrahydroquinolin-4-yl)amino)phenyl)glutaramide], in the experiment with DCAF16 KO SU-DHL-4 cells, the “Activity Attenuation Ratio” value is given as 213 and the IC50 came out at 106 nM. Further, in the experiment on SU-DHL-4 cells, the IC50 was 0.5 nM and the IC90 is 3.09 nM.

With `CCC(=O)N1c2ccccc2[C@H](Nc2ccc(NC(=O)CCCC(=O)Nc3cccc(Oc4ccccc4-c4cn(C)c(=O)cc4OC)c3)cc2)C[C@@H]1C` [Compound 16m, N^1-(3-(2-(4-Methoxy-1-methyl-6-oxo-1,6-dihydropyridin-3-yl)phenoxy)phenyl)-N5-(4-(((2S,4R)-2-methyl-1-propionyl-1,2,3,4-tetrahydroquinolin-4-yl)amino)phenyl)glutaramide], the “Activity Attenuation Ratio” value in the experiment with DCAF16 KO SU-DHL-4 cells is listed as 338. The IC50 with DCAF16 KO SU-DHL-4 cells (Homo sapiens) was 208 nM; with SU-DHL-4 cells (Homo sapiens) it was 0.62 nM. Moreover, the IC90 in the experiment with SU-DHL-4 cells (Homo sapiens) is 1.85 nM.

For the compound `CCC(=O)N1c2ccccc2[C@H](Nc2ccc(NC(=O)CCCC(=O)Nc3ccc(C(=O)N4CCC(=O)Nc5ccccc54)cc3)cc2)C[C@@H]1C` [Compound 16o, N^1-(4-(((2S,4R)-2-Methyl-1-propionyl-1,2,3,4-tetrahydroquinolin-4-yl)amino)phenyl)-N5-(4-(4-oxo-2,3,4,5-tetra hydro-1H-benzo[b][1,4]diazepine-1-carbonyl)phenyl)glutaramide], the “Activity Attenuation Ratio” value in the experiment on DCAF16 KO SU-DHL-4 cells stood at 96. The IC50 in the experiment on DCAF16 KO SU-DHL-4 cells (Homo sapiens) came out at 2400 nM. In the experiment with SU-DHL-4 cells (Homo sapiens), the IC50 was 24.8 nM and the IC90 came out at 80.3 nM.

For `CCC(=O)N1c2ccccc2[C@H](Nc2ccc(NC(=O)CCCC(=O)NC3CCC(Cn4cc(-c5c(C)noc5C)ccc4=O)CC3)cc2)C[C@@H]1C` (stereo partly drawn) [Compound 16p, N^1-((1r,4r)-4-((5-(3,5-Dimethylisoxazol-4-yl)-2-oxopyridin-1(2H)-yl)methyl)cyclohexyl)-N5-(4-(((2S,4R)-2-methyl-1-propionyl-1,2,3,4-tetrahydroquinolin-4-yl)amino)phenyl)glutaramide], in the experiment on DCAF16 KO SU-DHL-4 cells, the “Activity Attenuation Ratio” value worked out at 3390 and 925 nM corresponded to half-maximal inhibition (IC50). For the same compound, in the experiment on SU-DHL-4 cells, the IC50 was 0.27 nM and the IC90 amounted to 0.63 nM.

On to `CCC(=O)N1c2ccccc2[C@H](Nc2ccc(NC(=O)CCCC(=O)Nc3ccc(Cn4cc(-c5c(C)noc5C)ccc4=O)cc3)cc2)C[C@@H]1C` [Compound 17a, N^1-(4-((5-(3,5-Dimethylisoxazol-4-yl)-2-oxopyridin-1(2H)-yl)methyl)phenyl)-N5-(4-(((2S,4R)-2-methyl-1-propionyl-1,2,3,4-tetrahydroquinolin-4-yl)amino)phenyl)glutaramide], for which the “Activity Attenuation Ratio” value in the experiment on DCAF16 KO SU-DHL-4 cells worked out at 1895. Further, the IC50 in the experiment on DCAF16 KO SU-DHL-4 cells (Homo sapiens) is 182 nM. Moreover, in the experiment with SU-DHL-4 cells (Homo sapiens), the IC50 is 0.1 nM and the IC90 is 0.16 nM.

For `CCNC(=O)C[C@@H]1N=C(c2ccc(SCCCCSc3ccc(C4=N[C@@H](CC(=O)NCC)c5nnc(C)n5-c5ccc(OC)cc54)cc3)cc2)c2cc(OC)ccc2-n2c(C)nnc21` [compound 1, 2,2′-((4S,4'S)-6,6′-((butane-1,4-diylbis(sulfanediyl))bis(4,1-phenylene))bis(8-methoxy-1-methyl-4H-benzo[f][1,2,4]triazolo[4,3-a][1,4]diazepine-6,4-diyl))bis(N-ethylacetamide), reference compound], in the experiment with DCAF16 KO SU-DHL-4 cells, the “Activity Attenuation Ratio” value came out at 0.23 and the IC50 was 49.2 nM. In the experiment with SU-DHL-4 cells, the IC50 is 221 nM and the IC90 was 2560 nM.

On to `Cc1sc2c(c1C)C(c1ccc(Cl)cc1)=N[C@@H](CC(=O)NCCOCCOCCOCCOCCOCCOCCOCCNC(=O)C[C@@H]1N=C(c3ccc(Cl)cc3)c3c(sc(C)c3C)-n3c(C)nnc31)c1nnc(C)n1-2` [compound 2, reference compound], for which, in the experiment with DCAF16 KO SU-DHL-4 cells, the “Activity Attenuation Ratio” value turned out to be 0.32 and the IC50 is 75.7 nM. Moreover, in the experiment with SU-DHL-4 cells, the IC50 was 235 nM and the IC90 was above 10000 nM.

As usually defined, the IC50 is the midpoint of a concentration-inhibition curve. The term IC90 denotes the point of the concentration-response curve where the effect stands at 90%.
